In patent publication US20230002357A1, “7-PYRIMIDINE-2-YL-OXY-INDAZOLE DERIVATIVES AND THEIR USE AS HERBICIDES” (SYNGENTA CROP PROTECTION AG, priority 2019, published 2023):

Key:
Type in all cases: in vivo
Settings in all cases: 250 g/ha, evaluated after 13 days
IPOHE [1] = assay: Post-emergence Test, glasshouse, IPOHE
How it was run: (§1)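 Sow seeds in standard soil; grow under glasshouse control (24/16 °C day/night, 14 h light, 65% humidity). Spray at day 1 (pre-emergence) or day 8 (post-emergence) with an aqueous spray of compound formulated in acetone/water 50:50 with 0.5% Tween 20, normally 250 g/ha. Evaluate percentage damage at 13 days, scored 1-5.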

Setaria faberi (SETFA) [2] = assay: Pre-emergence Test, glasshouse, SETFA
How it was run: as §1

ABUTH [3] = assay: Pre-emergence Test, glasshouse, ABUTH
How it was run: as §1

ABUTH [4] = assay: Post-emergence Test, glasshouse, ABUTH
How it was run: as §1

[5] = system: Amaranthus retoflexus (AMARE); assay: Post-emergence Test, glasshouse, AMARE
How it was run: as §1

IPOHE [6] = assay: Pre-emergence Test, glasshouse, IPOHE
How it was run: as §1

[7] = system: Echinochloa crus-galli (ECHCG); assay: Pre-emergence Test, glasshouse, ECHCG
How it was run: as §1

[8] = system: Amaranthus retoflexus (AMARE); assay: Pre-emergence Test, glasshouse, AMARE
How it was run: as §1

[9] = system: Echinochloa crus-galli (ECHCG); assay: Post-emergence Test, glasshouse, ECHCG
How it was run: as §1

Setaria faberi (SETFA) [10] = assay: Post-emergence Test, glasshouse, SETFA
How it was run: as §1

SMILES: FC(F)(F)CCCn1nc(Br)c2cc(Br)cc(Oc3ncc(Cl)cn3)c21 [Compound 1.016]
- percentage damage caused to the plant, five-point scale, IPOHE (IPOHE [1]): 1 (1=0-20%)
- percentage damage caused to the plant, five-point scale, SETFA (Setaria faberi (SETFA) [2]): 1 (1=0-20%)
- percentage damage caused to the plant, five-point scale, ABUTH (ABUTH [3]): 1 (1=0-20%)
- percentage damage caused to the plant, five-point scale, ABUTH (ABUTH [4]): 2 (2=21-40%)
- percentage damage caused to the plant, five-point scale, AMARE [5]: 4 (4=61-80%)
- percentage damage caused to the plant, five-point scale, IPOHE (IPOHE [6]): 1 (1=0-20%)
- percentage damage caused to the plant, five-point scale, ECHCG [7]: 1 (1=0-20%)
- percentage damage caused to the plant, five-point scale, AMARE [8]: 1 (1=0-20%)
- percentage damage caused to the plant, five-point scale, ECHCG [9]: 1 (1=0-20%)
- percentage damage caused to the plant, five-point scale, SETFA (Setaria faberi (SETFA) [10]): 1 (1=0-20%)

SMILES: Cl/C=C/Cn1nc(Cl)c2cccc(Oc3ncc(Cl)cn3)c21 [Compound 1.069]
- percentage damage caused to the plant, five-point scale, IPOHE (IPOHE [1]): 2 (2=21-40%)
- percentage damage caused to the plant, five-point scale, SETFA (Setaria faberi (SETFA) [2]): 5 (5=81-100%)
- percentage damage caused to the plant, five-point scale, ABUTH (ABUTH [3]): 2 (2=21-40%)
- percentage damage caused to the plant, five-point scale, ABUTH (ABUTH [4]): 4 (4=61-80%)
- percentage damage caused to the plant, five-point scale, AMARE [5]: 5 (5=81-100%)
- percentage damage caused to the plant, five-point scale, IPOHE (IPOHE [6]): 1 (1=0-20%)
- percentage damage caused to the plant, five-point scale, ECHCG [7]: 3 (3=41-60%)
- percentage damage caused to the plant, five-point scale, AMARE [8]: 3 (3=41-60%)
- percentage damage caused to the plant, five-point scale, ECHCG [9]: 3 (3=41-60%)
- percentage damage caused to the plant, five-point scale, SETFA (Setaria faberi (SETFA) [10]): 2 (2=21-40%)

SMILES: Fc1cnc(Oc2cccc3c(Cl)nn(CCCC(F)(F)F)c23)nc1 [Compound 1.047]
- percentage damage caused to the plant, five-point scale, IPOHE (IPOHE [1]): 5 (5=81-100%)
- percentage damage caused to the plant, five-point scale, SETFA (Setaria faberi (SETFA) [2]): 5 (5=81-100%)
- percentage damage caused to the plant, five-point scale, ABUTH (ABUTH [3]): 5 (5=81-100%)
- percentage damage caused to the plant, five-point scale, ABUTH (ABUTH [4]): 5 (5=81-100%)
- percentage damage caused to the plant, five-point scale, AMARE [5]: 5 (5=81-100%)
- percentage damage caused to the plant, five-point scale, IPOHE (IPOHE [6]): 3 (3=41-60%)
- percentage damage caused to the plant, five-point scale, ECHCG [7]: 5 (5=81-100%)
- percentage damage caused to the plant, five-point scale, AMARE [8]: 5 (5=81-100%)
- percentage damage caused to the plant, five-point scale, ECHCG [9]: 5 (5=81-100%)
- percentage damage caused to the plant, five-point scale, SETFA (Setaria faberi (SETFA) [10]): 4 (4=61-80%)

SMILES: C=CCn1nc(Cl)c2cccc(Oc3ncc(Cl)cn3)c21 [Compound 1.065]
- percentage damage caused to the plant, five-point scale, IPOHE (IPOHE [1]): 2 (2=21-40%)
- percentage damage caused to the plant, five-point scale, SETFA (Setaria faberi (SETFA) [2]): 4 (4=61-80%)
- percentage damage caused to the plant, five-point scale, ABUTH (ABUTH [3]): 2 (2=21-40%)
- percentage damage caused to the plant, five-point scale, ABUTH (ABUTH [4]): 2 (2=21-40%)
- percentage damage caused to the plant, five-point scale, AMARE [5]: 4 (4=61-80%)
- percentage damage caused to the plant, five-point scale, IPOHE (IPOHE [6]): 1 (1=0-20%)
- percentage damage caused to the plant, five-point scale, ECHCG [7]: 3 (3=41-60%)
- percentage damage caused to the plant, five-point scale, AMARE [8]: 2 (2=21-40%)
- percentage damage caused to the plant, five-point scale, ECHCG [9]: 2 (2=21-40%)
- percentage damage caused to the plant, five-point scale, SETFA (Setaria faberi (SETFA) [10]): 2 (2=21-40%)

SMILES: Fc1cc(Cl)cnc1Oc1ccc(Cl)c2cnn(CCCC(F)(F)F)c12 [Compound 1.031]
- percentage damage caused to the plant, five-point scale, IPOHE (IPOHE [1]): 1 (1=0-20%)
- percentage damage caused to the plant, five-point scale, SETFA (Setaria faberi (SETFA) [2]): 1 (1=0-20%)
- percentage damage caused to the plant, five-point scale, ABUTH (ABUTH [3]): 1 (1=0-20%)
- percentage damage caused to the plant, five-point scale, ABUTH (ABUTH [4]): 1 (1=0-20%)
- percentage damage caused to the plant, five-point scale, AMARE [5]: 4 (4=61-80%)
- percentage damage caused to the plant, five-point scale, IPOHE (IPOHE [6]): 1 (1=0-20%)
- percentage damage caused to the plant, five-point scale, ECHCG [7]: 1 (1=0-20%)
- percentage damage caused to the plant, five-point scale, AMARE [8]: 1 (1=0-20%)
- percentage damage caused to the plant, five-point scale, ECHCG [9]: 1 (1=0-20%)
- percentage damage caused to the plant, five-point scale, SETFA (Setaria faberi (SETFA) [10]): 1 (1=0-20%)

SMILES: Cc1ccc2cnn(CCCC(F)(F)F)c2c1Oc1ncc(Cl)cn1 [Compound 1.044]
- percentage damage caused to the plant, five-point scale, IPOHE (IPOHE [1]): 1 (1=0-20%)
- percentage damage caused to the plant, five-point scale, SETFA (Setaria faberi (SETFA) [2]): 3 (3=41-60%)
- percentage damage caused to the plant, five-point scale, ABUTH (ABUTH [3]): 1 (1=0-20%)
- percentage damage caused to the plant, five-point scale, ABUTH (ABUTH [4]): 1 (1=0-20%)
- percentage damage caused to the plant, five-point scale, AMARE [5]: 1 (1=0-20%)
- percentage damage caused to the plant, five-point scale, IPOHE (IPOHE [6]): 1 (1=0-20%)
- percentage damage caused to the plant, five-point scale, ECHCG [7]: 3 (3=41-60%)
- percentage damage caused to the plant, five-point scale, AMARE [8]: 2 (2=21-40%)
- percentage damage caused to the plant, five-point scale, ECHCG [9]: 1 (1=0-20%)
- percentage damage caused to the plant, five-point scale, SETFA (Setaria faberi (SETFA) [10]): 1 (1=0-20%)

SMILES: FC(F)(F)CCCn1nc(Cl)c2cc(Br)cc(Oc3ncc(Cl)cn3)c21 [Compound 1.010, 5-bromo-3-chloro-7-(5-chloropyrimidin-2-yl)oxy-1-(4,4,4-trifluorobutyl)indazole]
- percentage damage caused to the plant, five-point scale, IPOHE (IPOHE [1]): 1 (1=0-20%)
- percentage damage caused to the plant, five-point scale, SETFA (Setaria faberi (SETFA) [2]): 2 (2=21-40%)
- percentage damage caused to the plant, five-point scale, ABUTH (ABUTH [3]): 1 (1=0-20%)
- percentage damage caused to the plant, five-point scale, ABUTH (ABUTH [4]): 1 (1=0-20%)
- percentage damage caused to the plant, five-point scale, AMARE [5]: 4 (4=61-80%)
- percentage damage caused to the plant, five-point scale, IPOHE (IPOHE [6]): 1 (1=0-20%)
- percentage damage caused to the plant, five-point scale, ECHCG [7]: 2 (2=21-40%)
- percentage damage caused to the plant, five-point scale, AMARE [8]: 4 (4=61-80%)
- percentage damage caused to the plant, five-point scale, ECHCG [9]: 2 (2=21-40%)
- percentage damage caused to the plant, five-point scale, SETFA (Setaria faberi (SETFA) [10]): 2 (2=21-40%)

SMILES: FC(F)(F)CCCn1nc(Cl)c2ccc(Br)c(Oc3ncc(Cl)cn3)c21 [Compound 1.037]
- percentage damage caused to the plant, five-point scale, IPOHE (IPOHE [1]): 1 (1=0-20%)
- percentage damage caused to the plant, five-point scale, SETFA (Setaria faberi (SETFA) [2]): 1 (1=0-20%)
- percentage damage caused to the plant, five-point scale, ABUTH (ABUTH [3]): 1 (1=0-20%)
- percentage damage caused to the plant, five-point scale, ABUTH (ABUTH [4]): 1 (1=0-20%)
- percentage damage caused to the plant, five-point scale, AMARE [5]: 2 (2=21-40%)
- percentage damage caused to the plant, five-point scale, IPOHE (IPOHE [6]): 1 (1=0-20%)
- percentage damage caused to the plant, five-point scale, ECHCG [7]: 1 (1=0-20%)
- percentage damage caused to the plant, five-point scale, AMARE [8]: 1 (1=0-20%)
- percentage damage caused to the plant, five-point scale, ECHCG [9]: 1 (1=0-20%)
- percentage damage caused to the plant, five-point scale, SETFA (Setaria faberi (SETFA) [10]): 1 (1=0-20%)

SMILES: FC(F)(F)CCCn1ncc2cccc(Oc3ncc(Cl)cn3)c21 [Compound 1.001, 7-(5-chloropyrimidin-2-yl)oxy-1-(4,4,4-trifluorobutyl)indazole]
- percentage damage caused to the plant, five-point scale, IPOHE (IPOHE [1]): 1 (1=0-20%)
- percentage damage caused to the plant, five-point scale, SETFA (Setaria faberi (SETFA) [2]): 5 (5=81-100%)
- percentage damage caused to the plant, five-point scale, ABUTH (ABUTH [3]): 4 (4=61-80%)
- percentage damage caused to the plant, five-point scale, ABUTH (ABUTH [4]): 4 (4=61-80%)
- percentage damage caused to the plant, five-point scale, AMARE [5]: 2 (2=21-40%)
- percentage damage caused to the plant, five-point scale, IPOHE (IPOHE [6]): 1 (1=0-20%)
- percentage damage caused to the plant, five-point scale, ECHCG [7]: 5 (5=81-100%)
- percentage damage caused to the plant, five-point scale, AMARE [8]: 4 (4=61-80%)
- percentage damage caused to the plant, five-point scale, ECHCG [9]: 3 (3=41-60%)
- percentage damage caused to the plant, five-point scale, SETFA (Setaria faberi (SETFA) [10]): 4 (4=61-80%)

SMILES: FC(F)(F)CCCn1ncc2ccc(Br)c(Oc3ncc(Cl)cn3)c21 [Compound 1.036]
- percentage damage caused to the plant, five-point scale, IPOHE (IPOHE [1]): 1 (1=0-20%)
- percentage damage caused to the plant, five-point scale, SETFA (Setaria faberi (SETFA) [2]): 1 (1=0-20%)
- percentage damage caused to the plant, five-point scale, ABUTH (ABUTH [3]): 1 (1=0-20%)
- percentage damage caused to the plant, five-point scale, ABUTH (ABUTH [4]): 1 (1=0-20%)
- percentage damage caused to the plant, five-point scale, AMARE [5]: 1 (1=0-20%)
- percentage damage caused to the plant, five-point scale, IPOHE (IPOHE [6]): 1 (1=0-20%)
- percentage damage caused to the plant, five-point scale, ECHCG [7]: 1 (1=0-20%)
- percentage damage caused to the plant, five-point scale, AMARE [8]: 1 (1=0-20%)
- percentage damage caused to the plant, five-point scale, ECHCG [9]: 1 (1=0-20%)
- percentage damage caused to the plant, five-point scale, SETFA (Setaria faberi (SETFA) [10]): 1 (1=0-20%)
